The text below walks through data of article PMC12217679 (Scientific Reports, 2025).

For assay [1], the target named is T1, human intestinal alkaline phosphatase (hIAP) (Homo sapiens, UniProt P09923).
T1 sequence (P09923 20-503 limits assumed): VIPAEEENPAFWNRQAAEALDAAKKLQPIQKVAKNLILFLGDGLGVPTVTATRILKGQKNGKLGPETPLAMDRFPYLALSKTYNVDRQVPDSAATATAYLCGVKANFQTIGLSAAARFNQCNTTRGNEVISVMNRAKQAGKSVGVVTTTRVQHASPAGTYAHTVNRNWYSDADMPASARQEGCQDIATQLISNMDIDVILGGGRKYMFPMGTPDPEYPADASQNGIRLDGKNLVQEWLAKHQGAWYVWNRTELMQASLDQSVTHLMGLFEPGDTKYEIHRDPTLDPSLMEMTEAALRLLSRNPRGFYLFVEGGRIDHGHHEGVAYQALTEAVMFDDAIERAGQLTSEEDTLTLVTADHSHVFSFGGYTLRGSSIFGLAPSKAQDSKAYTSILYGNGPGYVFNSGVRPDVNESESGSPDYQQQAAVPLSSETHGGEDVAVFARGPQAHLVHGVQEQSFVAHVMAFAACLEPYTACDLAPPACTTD
Kind of assay: SPR competition of IIAEK binding to hIAP by PLP. The settings on record: IIAEK 297 μM, PLP 0, 1000 and 2000 μM, HBS-N pH 7.4.

Assay [2] relates to hepatic NPC1L1. The settings on record: cited from earlier work.
For assay [3], the system named is mouse liver. The settings on record: cited from earlier work.
In assay [4] the test system is cholesterol metabolism. The settings on record: cited from earlier work.
For assay [5], the target named is DPP4. As to conditions: read-out: dissociation constant (Kd) with DPP4; cited from earlier work.

`Cc1ncc(COP(=O)(O)O)c(C=O)c1O` [PLP, Pyridoxal 5′-phosphate]: the “competition with IIAEK for hIAP” value in assay [1] was “competes for the interaction between IIAEK and hIAP in a concentration-dependent manner”.
For `O=C1[C@H](CC[C@H](O)c2ccc(F)cc2)[C@@H](c2ccc(O)cc2)N1c1ccc(F)cc1` [ezetimibe], the “hepatic NPC1L1-induced hepatic lipids accumulation” value in assay [2] is given as “eliminated”. Further, in assay [3], the “hepatic mRNA levels of Hmgcr and Srebf2” value is “increasing hepatic mRNA levels of Hmgcr and Srebf2”; the liver cholesterol levels result is on record as “decreases liver cholesterol levels”.
Regarding GEQQQPGM, the “improvement of cholesterol metabolism in animal studies” value (from here on “improvement of cholesterol metabolism”) in assay [4] was “effectively improve cholesterol metabolism”.
A word on the Kd: it is a measure of binding affinity in units of concentration. With GLP-1: DPP4 substrate, in assay [5], the Kd is 153 µM.
Turning to HIRL, the “improvement of cholesterol metabolism” value in assay [4] is “effectively improve cholesterol metabolism”.
With VAWWMY, the “improvement of cholesterol metabolism” value in assay [4] is recorded as “effectively improve cholesterol metabolism”.
VFVRN: the “improvement of cholesterol metabolism” value in assay [4] is given as “effectively improve cholesterol metabolism”.
Turning to VHVV, the “improvement of cholesterol metabolism” value in assay [4] is on record as “effectively improve cholesterol metabolism”.
With VSEE, in assay [4], the “improvement of cholesterol metabolism” value is given as “effectively improve cholesterol metabolism”.
